Experimental data: ChEMBL document CHEMBL1139558, “Isolation, characterization and antiplasmodial activity of steroidal alkaloids from Funtumia elastica (Preuss) Stapf” (Bioorg Med Chem Lett, 2005)
pIC50: −log10 of the molar value.

Tests used:
[1] = Cytotoxicity against rat L-6 cell line; assay type: functional, cell-based; details: L6
Plasmodium falciparum = experiment: In vitro antiplasmodial activity for chloroquine-resistant Plasmodium falciparum FcB1; assay type: functional, organism-based
Rattus norvegicus = organism: Rattus norvegicus; experiment: Selectivity Index is expressed as the ratio of cytotoxicity (IC50) against rat L-6 cell line to that of antiplasmodial activity (IC50) of chloroquine-resistant strain FcB1 of Plasmodium falciparum; assay type: functional

Row | SMILES | pIC50 [1] | pIC50 (Plasmodium falciparum) | Selectivity index (Rattus norvegicus)
1 | CN[C@H]1CC[C@@]2(C)C(=CC[C@H]3[C@@H]4CC[C@@H]5[C@H](C)N(C)C[C@@]54[C@H](OC(=O)CC=C(C)C)C[C@@H]32)C1 | 5.13 | 6.01 | 7.7
2 | CC(C)=CCC(=O)O[C@@H]1C[C@H]2[C@@H](CC=C3C[C@@H](N(C)C)CC[C@@]32C)[C@@H]2CC[C@@H]3[C@H](C)N(C)C[C@]312 | 5.29 | 5.95 | 4.5
3 | C[C@H]1[C@H]2CC[C@H]3[C@@H]4CC=C5C[C@@H](N(C)C)CC[C@]5(C)[C@H]4CC[C@]23CN1C [CONESSINE] | 4.84 | 5.98 | 14
4 | CN[C@H]1CC[C@@]2(C)C(=CC[C@H]3[C@@H]4CC[C@@H]5[C@H](C)N(C)C[C@@]54CC[C@@H]32)C1 [ISOCONESSIMINE] | 4.44 | 5.47 | 10.8
